Test results as given in publication PMC5931996 (Scientific Reports, 2018).

Assays:
[1] = tested on: 5-HTP-induced head twitches in rats; assay: 5-HTP-induced head twitch; assay type: in vivo, SD rats; conditions: mean ± S.E.M.
Protocol: SD rats (200–250 g, 8 animals/ group) were housed in the test room for at least 1 h before the experiment. […] Then, all animals were intraperitoneally injected with 0.9% saline or 5-HTP (320 mg/kg) 40 min before the test. The number of head twitches was recorded during a period of 40–70 min after intraperitoneal injection.

MK-801-treated rats [2] = assay: Morris water maze test, subchronic administration, MK-801-treated rats; assay type: in vivo, SD rats
Protocol: The MWM test was started after the last injection. Each rat was trained in 4 trials per day for 5 consecutive days. The escape latency to find the submerged escape platform in the water maze was recorded with the TopScan monitoring system. Each training session lasted for a maximum of 60 s. If the escape latency exceeded 60 s, it was recorded as 60 s and the rat was manually guided to the platform. On day 6, the platform was removed and each rat was allowed to swim freely for 60 s.

MK-801-treated rats [3] = assay: Morris water maze test, acute administration, MK-801-treated rats; assay type: in vivo, SD rats; conditions: mean ± S.E.M.
Protocol: SD rats (200–250 g, 8 animals/ group) were trained continuously until all rats found the platform within 30 sec, and the training time depended on the training results. […]. Then, all animals were intraperitoneal injections of 0.9% saline or MK-801 (0.2 mg/kg, i.p.) 30 minutes before the test. The test was started and the escape latency of rats was measured during the test in which platform was not withdrawn. A trial was deemed complete as soon as the rat had located platform or when 60 s had elapsed, whichever occurred first. The swimming activity of each rat was monitored by TopScan monitoring system. At the end of each trial, the maze was cleaned. The maze was rotated by clockwise after each training day to avoid potential intramaze cues (odour trails, etc.)[38].

[4] = tested on: MK-801-induced locomotor hyperactivity in rats; assay: Inhibition of MK-801-induced hyperactivity; assay type: in vivo, SD rats; conditions: mean ± S.E.M.
Protocol: […]. […] Animals were returned to the activity chambers after the intraperitoneal injection, and locomotor activity as quantitated as the distance travelled (mm) was recorded for 10 to 20 minutes using the TopScan monitoring system. At the end of each trial, the faecal boli were cleaned to avoid the potential influence of intramaze cues (odour trails, etc.) on the rats[36].

mice = assay: Forelimb catalepsy in mice; conditions: NIH, mouse, in vivo, po, 1 h
Protocol: Then each mouse was positioned such that both front paws rested on a […] diameter steel rod (covered with non-slippery tape) placed 3.5 cm above the surface of the bench. The period of time that each mouse maintained this position was recorded. The experiment was repeated at least 10 times. Finally, the longest period of catalepsy for each mouse was recorded.

human 5-HT2C receptor = target: T1, human 5-HT2C receptor (Homo sapiens, UniProt P28335); assay: Radioligand binding assay, 5-HT2C receptor; conditions: radioligand displacement, transfected HEK-293 cells; read-out: Receptor binding affinity (Ki), 5-HT2C
T1 construct: expressed in transfected cells; host or cells: HEK-293
T1 sequence (P28335 33-458): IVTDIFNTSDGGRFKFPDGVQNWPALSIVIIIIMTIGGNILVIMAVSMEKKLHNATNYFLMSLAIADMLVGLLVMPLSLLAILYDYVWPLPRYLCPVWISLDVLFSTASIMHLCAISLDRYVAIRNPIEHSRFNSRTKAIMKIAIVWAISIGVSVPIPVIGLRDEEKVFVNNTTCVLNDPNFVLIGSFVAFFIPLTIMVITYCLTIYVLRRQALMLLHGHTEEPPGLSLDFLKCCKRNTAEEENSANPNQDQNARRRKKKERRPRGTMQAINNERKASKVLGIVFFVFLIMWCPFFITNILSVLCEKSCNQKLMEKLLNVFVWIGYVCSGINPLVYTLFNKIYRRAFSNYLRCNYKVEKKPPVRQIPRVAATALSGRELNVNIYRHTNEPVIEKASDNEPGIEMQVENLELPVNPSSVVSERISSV
Protocol: (§1) The affinity of compounds for the human dopamine D2, D3, D4, 5-HT2A, 5-HT2B, 5-HT2C, 5-HT6, 5-HT7, H1, α1A, and α1B receptors in transfected HEK-293 cells was determined using a radioligand binding assay. Cell membrane homogenates were incubated in the absence or presence of the test compound in a buffer. Nonspecific binding was measured in the presence of the standard reference compound. Following incubation, samples were rapidly filtered under a vacuum through glass fibre filters (GF/B, Packard) presoaked with 0.3% PEI and rinsed several times with ice-cold 50 mM Tris-HCl using a 96-sample cell harvester (Unifilter, Packard). Filters were dried and then radioactivity was counted in a scintillation counter (Topcount, Packard) using a scintillation cocktail (Microscint 0, Packard). The results are expressed as percent inhibition of the specific binding of the radioligand in the control. The standard reference compound was tested in each experiment at several concentrations to obtain a competition curve from which its Ki was calculated.

human 5-HT7 receptor = target: T2, human 5-HT7 receptor (Homo sapiens, UniProt P34969); assay: Radioligand binding assay, 5-HT7 receptor; conditions: radioligand displacement, transfected HEK-293 cells; read-out: Receptor binding affinity (Ki), 5-HT7
T2 construct: expressed in transfected cells; host or cells: HEK-293
T2 sequence (P34969 whole entry): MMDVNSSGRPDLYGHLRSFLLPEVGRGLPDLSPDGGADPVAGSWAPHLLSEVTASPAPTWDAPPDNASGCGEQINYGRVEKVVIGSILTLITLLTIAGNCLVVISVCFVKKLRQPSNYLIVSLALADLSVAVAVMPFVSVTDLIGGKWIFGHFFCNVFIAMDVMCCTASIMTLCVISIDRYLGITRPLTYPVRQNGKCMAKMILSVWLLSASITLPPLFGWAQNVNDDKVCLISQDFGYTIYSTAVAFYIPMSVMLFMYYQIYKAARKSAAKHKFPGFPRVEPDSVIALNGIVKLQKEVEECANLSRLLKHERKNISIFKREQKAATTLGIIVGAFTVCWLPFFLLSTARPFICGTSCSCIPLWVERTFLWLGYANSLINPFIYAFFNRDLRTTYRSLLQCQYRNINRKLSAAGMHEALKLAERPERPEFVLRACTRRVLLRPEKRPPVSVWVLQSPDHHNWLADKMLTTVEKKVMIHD
Protocol: as §1

human 5-HT2B receptor = target: T3, human 5-HT2B receptor (Homo sapiens, UniProt P41595); assay: Radioligand binding assay, 5-HT2B receptor; conditions: radioligand displacement, transfected HEK-293 cells; read-out: Receptor binding affinity (Ki), 5-HT2B
T3 construct: expressed in transfected cells; host or cells: HEK-293
T3 sequence (P41595 whole entry): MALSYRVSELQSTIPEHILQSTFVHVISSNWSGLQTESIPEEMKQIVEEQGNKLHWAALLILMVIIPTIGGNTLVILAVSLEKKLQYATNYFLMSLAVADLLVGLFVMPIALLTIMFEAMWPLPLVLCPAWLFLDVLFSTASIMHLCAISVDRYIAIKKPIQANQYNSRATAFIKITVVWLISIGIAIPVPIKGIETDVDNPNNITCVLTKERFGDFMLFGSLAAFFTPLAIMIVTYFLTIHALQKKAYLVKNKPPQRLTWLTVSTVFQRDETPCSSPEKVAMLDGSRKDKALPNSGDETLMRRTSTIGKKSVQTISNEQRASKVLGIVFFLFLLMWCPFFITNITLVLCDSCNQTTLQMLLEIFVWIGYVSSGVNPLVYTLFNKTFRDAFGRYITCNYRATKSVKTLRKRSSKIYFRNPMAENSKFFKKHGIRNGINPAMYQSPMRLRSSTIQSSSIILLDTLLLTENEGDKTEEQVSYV
Protocol: as §1

human α1A receptor = target: T4, human α1A receptor (Homo sapiens, UniProt P35348); assay: Radioligand binding assay, α1A receptor; conditions: radioligand displacement, transfected HEK-293 cells; read-out: Receptor binding affinity (Ki), α1A
T4 construct: expressed in transfected cells; host or cells: HEK-293
T4 sequence (P35348 1-466): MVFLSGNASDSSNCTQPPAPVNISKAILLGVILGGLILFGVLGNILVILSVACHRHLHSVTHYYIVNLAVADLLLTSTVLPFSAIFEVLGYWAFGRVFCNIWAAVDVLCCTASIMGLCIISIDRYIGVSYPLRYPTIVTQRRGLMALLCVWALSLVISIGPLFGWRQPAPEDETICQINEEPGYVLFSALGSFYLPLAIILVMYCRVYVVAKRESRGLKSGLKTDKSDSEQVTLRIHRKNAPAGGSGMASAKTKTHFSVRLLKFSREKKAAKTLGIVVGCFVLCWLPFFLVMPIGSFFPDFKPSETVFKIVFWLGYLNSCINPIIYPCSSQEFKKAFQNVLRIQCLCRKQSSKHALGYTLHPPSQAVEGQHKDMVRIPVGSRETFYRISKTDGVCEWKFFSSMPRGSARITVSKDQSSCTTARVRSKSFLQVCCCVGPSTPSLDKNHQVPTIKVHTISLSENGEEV
Protocol: as §1

human 5-HT6 receptor = target: T5, human 5-HT6 receptor (Homo sapiens, UniProt P50406); assay: Radioligand binding assay, 5-HT6 receptor; conditions: radioligand displacement, transfected HEK-293 cells; read-out: Receptor binding affinity (Ki), 5-HT6
T5 construct: expressed in transfected cells; host or cells: HEK-293
T5 sequence (P50406 whole entry): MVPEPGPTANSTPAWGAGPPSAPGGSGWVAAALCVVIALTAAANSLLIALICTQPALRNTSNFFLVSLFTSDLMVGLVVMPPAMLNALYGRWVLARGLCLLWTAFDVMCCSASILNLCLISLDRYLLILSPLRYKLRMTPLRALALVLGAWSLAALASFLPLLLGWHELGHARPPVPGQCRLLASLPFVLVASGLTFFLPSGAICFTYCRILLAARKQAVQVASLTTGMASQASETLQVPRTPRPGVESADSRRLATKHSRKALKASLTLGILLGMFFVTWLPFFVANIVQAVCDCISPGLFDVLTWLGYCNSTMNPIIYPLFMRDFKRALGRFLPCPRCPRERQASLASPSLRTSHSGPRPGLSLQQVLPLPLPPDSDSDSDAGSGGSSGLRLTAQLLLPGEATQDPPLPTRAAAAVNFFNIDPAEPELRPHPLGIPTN
Protocol: as §1

human α1B receptor = target: T6, human α1B receptor (Homo sapiens, UniProt P35368); assay: Radioligand binding assay, α1B receptor; conditions: radioligand displacement, transfected HEK-293 cells; read-out: Receptor binding affinity (Ki), α1B
T6 construct: expressed in transfected cells; host or cells: HEK-293
T6 sequence (P35368 1-520): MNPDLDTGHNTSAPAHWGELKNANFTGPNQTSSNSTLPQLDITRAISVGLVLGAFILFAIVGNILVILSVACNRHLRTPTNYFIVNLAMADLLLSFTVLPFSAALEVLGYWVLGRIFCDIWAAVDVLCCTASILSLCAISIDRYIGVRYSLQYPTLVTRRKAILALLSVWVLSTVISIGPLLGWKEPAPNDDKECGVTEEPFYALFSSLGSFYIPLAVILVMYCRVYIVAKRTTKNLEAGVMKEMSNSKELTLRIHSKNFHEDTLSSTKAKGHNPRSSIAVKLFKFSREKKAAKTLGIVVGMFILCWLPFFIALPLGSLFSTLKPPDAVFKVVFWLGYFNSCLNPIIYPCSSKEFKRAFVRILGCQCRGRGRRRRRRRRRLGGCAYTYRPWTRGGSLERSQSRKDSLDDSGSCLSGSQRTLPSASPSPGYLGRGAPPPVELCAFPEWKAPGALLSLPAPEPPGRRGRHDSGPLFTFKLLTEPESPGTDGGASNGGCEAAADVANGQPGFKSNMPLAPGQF
Protocol: as §1

human 5-HT2A receptor = human 5-HT2A receptor (Homo sapiens, UniProt P28223); assay: Radioligand binding assay, 5-HT2A receptor; conditions: radioligand displacement, transfected HEK-293 cells; read-out: Receptor binding affinity (Ki), 5-HT2A
Chain of human 5-HT2A receptor (P28223 whole entry): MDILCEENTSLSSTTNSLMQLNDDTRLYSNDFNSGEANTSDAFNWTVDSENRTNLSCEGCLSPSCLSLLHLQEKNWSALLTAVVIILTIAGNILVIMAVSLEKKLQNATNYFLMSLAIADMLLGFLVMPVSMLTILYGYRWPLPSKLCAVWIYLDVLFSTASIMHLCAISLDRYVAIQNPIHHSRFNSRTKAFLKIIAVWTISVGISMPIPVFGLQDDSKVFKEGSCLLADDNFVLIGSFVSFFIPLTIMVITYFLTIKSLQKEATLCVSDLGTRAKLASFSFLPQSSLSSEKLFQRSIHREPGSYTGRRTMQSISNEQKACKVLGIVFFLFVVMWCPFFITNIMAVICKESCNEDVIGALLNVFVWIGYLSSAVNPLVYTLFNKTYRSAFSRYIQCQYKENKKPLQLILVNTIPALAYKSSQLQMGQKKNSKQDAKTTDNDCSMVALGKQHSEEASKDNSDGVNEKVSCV

human H1 receptor = target: T7, human H1 receptor (Homo sapiens, UniProt P35367); assay: Radioligand binding assay, H1 receptor; conditions: radioligand displacement, transfected HEK-293 cells; read-out: Receptor binding affinity (Ki), H1
T7 construct: expressed in transfected cells; host or cells: HEK-293
T7 sequence (P35367 whole entry): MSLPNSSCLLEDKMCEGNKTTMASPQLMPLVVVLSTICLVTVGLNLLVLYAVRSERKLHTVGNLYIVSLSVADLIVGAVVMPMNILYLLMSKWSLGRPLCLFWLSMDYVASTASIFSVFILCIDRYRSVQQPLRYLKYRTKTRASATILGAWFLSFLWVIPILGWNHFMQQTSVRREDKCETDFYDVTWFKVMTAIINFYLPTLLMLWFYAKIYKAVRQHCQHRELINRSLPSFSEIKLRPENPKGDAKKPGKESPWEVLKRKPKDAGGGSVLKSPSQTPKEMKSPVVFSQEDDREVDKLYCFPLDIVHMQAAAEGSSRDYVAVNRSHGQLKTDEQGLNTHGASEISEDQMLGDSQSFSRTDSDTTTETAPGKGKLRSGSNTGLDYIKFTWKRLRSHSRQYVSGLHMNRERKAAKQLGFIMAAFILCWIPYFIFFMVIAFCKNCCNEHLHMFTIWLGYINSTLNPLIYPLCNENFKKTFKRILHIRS
Protocol: as §1

[5] = tested on: MK-801-induced NOR deficit in rats; assay: Novel object recognition (NOR) test; conditions: MK-801 0.3 mg/kg i.p. day 15–28 with vehicle (model group)
Protocol: Rats were testing after the last administration. Following a 10-min habituation session on the day of testing, each rat was placed in the NOR chamber (grey PVC boxes 60*60 cm wide and 45 cm deep) and exposed to two identical objects (Left and Right) for a period of 10 min (Acquisition Trial). The objects used in this experiment were rectangular plastic cases. […] Rats were then returned to their home cage for an inter-trial interval (ITI) of 1.5 h and the entire box was cleaned. Then one was replaced with an identical familiar copy and one was replaced with a novel object. Following the ITI, rats were returned to the apparatus and allowed to explore the familiar and novel objects in the test box for a 10-min retention trial (Retention Trial). All experiments were monitored by TopScan monitoring system[39].

[6] = Body weight of rats after 28 days of dosing; assay type: in vivo; conditions: 0.2 mg/kg for 28 days, mean ± S.E.M.
plasma prolactin = assay: Plasma prolactin levels in rats (ELISA); assay type: in vivo; conditions: 0.2 mg/kg for 28 days, mean ± S.E.M.
Protocol: […]. Plasma prolactin levels were assessed using a commercially available Prolactin ELISA (Mouse/Rat) purchased from GenWay, according to the manufacturer’s instructions. Plasma TC and triglyceride levels were assessed using a Roche automatic biochemical analyser Cobas c 311.

[7] = […] oral 1 h before test, 5-HTP 320 mg/kg i.p., 40–70 min after injection
[8] = […] oral 1 h before test, MK-801 0.2 mg/kg i.p.
[9] = […] oral 1 h before test, MK-801 0.3 mg/kg i.p.

N[C@@H](Cc1c[nH]c2ccc(O)cc12)C(=O)O [5-HTP, reference compound]
number of head twitches ([1]; 5-HTP 320 mg/kg i.p. with vehicle (model group)): 52.5 ± 2.57

O=C1CCc2ccc(OCCCCN3CCN(c4cccc(Cl)c4Cl)CC3)cc2N1 [Aripiprazole, reference compound]
number of head twitches [1, 7]: 31.5 ± 3.12
escape latency (MK-801-treated rats [2]; […] oral for 28 days, MK-801 0.3 mg/kg i.p. day 15–28, mean ± S.E.M.): 31.83 ± 5.00 s
escape latency (MK-801-treated rats [3]; [8]): 21.71 ± 0.86 s
distance travelled [4, 9]: 1957 ± 455.1 mm

O=C1COc2ccc(OCCCCN3CCN(c4cccc(Cl)c4Cl)CC3)cc2N1 [PCC0104005]
number of head twitches ([1]; 3.0 mg/kg oral 1 h before test, 5-HTP 320 mg/kg i.p., 40–70 min after injection): 24.86 ± 4.35
number of head twitches ([1]; 6.0 mg/kg oral 1 h before test, 5-HTP 320 mg/kg i.p., 40–70 min after injection): 10.71 ± 4.81
number of head twitches [1, 7]: 20.17 ± 2.70
forelimb catalepsy duration (longest) (mice; 2 mg/kg): 22.56 ± 2.65 s
forelimb catalepsy duration (longest) (mice; 4 mg/kg): 25.89 ± 3.59 s
forelimb catalepsy duration (longest) (mice; 8 mg/kg): 21.23 ± 2.53 s
escape latency (MK-801-treated rats [2]; 3.0 mg/kg oral for 28 days, MK-801 0.3 mg/kg i.p. day 15–28, mean ± S.E.M.): 11.45 ± 2.70 s
escape latency (MK-801-treated rats [2]; 6.0 mg/kg oral for 28 days, MK-801 0.3 mg/kg i.p. day 15–28, mean ± S.E.M.): 14.88 ± 2.95 s
escape latency (MK-801-treated rats [3]; 3.0 mg/kg oral 1 h before test, MK-801 0.2 mg/kg i.p.): 18.35 ± 2.76 s
escape latency (MK-801-treated rats [3]; 6.0 mg/kg oral 1 h before test, MK-801 0.2 mg/kg i.p.): 17.45 ± 1.78 s
escape latency (MK-801-treated rats [3]; [8]): 20.60 ± 1.30 s
Ki (human 5-HT2C receptor): 36 nM
Ki (human 5-HT7 receptor): 5 nM
Ki (human 5-HT2B receptor): 0.34 nM
distance travelled ([4]; 3.0 mg/kg oral 1 h before test, MK-801 0.3 mg/kg i.p.): 2646 ± 235.2 mm
distance travelled ([4]; 6.0 mg/kg oral 1 h before test, MK-801 0.3 mg/kg i.p.): 2655 ± 286.5 mm
distance travelled [4, 9]: 3284 ± 220.7 mm
distance travelled (spontaneous activity) ([4]; administered alone without MK-801, dose not stated): 1885 ± 269.7 mm
Ki (human α1A receptor): 8.3 nM
Ki (human 5-HT6 receptor): 85 nM
Ki (human α1B receptor): 3.2 nM
Ki (human 5-HT2A receptor): 5.1 nM
Ki (human H1 receptor): 1.1 nM

C[C@]12N[C@H](Cc3ccccc31)c1ccccc12 [MK-801, reference compound]
Discrimination Index (DI) [5]: 0.51 ± 0.04
escape latency (MK-801-treated rats [2]; MK-801 0.3 mg/kg i.p. day 15–28 with vehicle (model group), mean ± S.E.M.): 25.56 ± 4.36 s
escape latency (MK-801-treated rats [3]; MK-801 0.2 mg/kg i.p. with vehicle (model group)): 35.67 ± 4.05 s
distance travelled ([4]; MK-801 0.3 mg/kg i.p. with vehicle (model group)): 4933 ± 275.6 mm

Cc1nc2n(c(=O)c1CCN1CCC(c3noc4cc(F)ccc34)CC1)CCCC2 [Risperidone, reference compound]
number of head twitches ([1]; 0.2 mg/kg oral 1 h before test, 5-HTP 320 mg/kg i.p., 40–70 min after injection): 9 ± 1.73
escape latency (MK-801-treated rats [2]; 0.2 mg/kg oral for 28 days, MK-801 0.3 mg/kg i.p. day 15–28, mean ± S.E.M.): 11.81 ± 3.06 s
escape latency (MK-801-treated rats [3]; 0.2 mg/kg oral 1 h before test, MK-801 0.2 mg/kg i.p.): 20.71 ± 2.18 s
body weights [6]: 116.4 ± 10.51 g
distance travelled ([4]; 0.2 mg/kg oral 1 h before test, MK-801 0.3 mg/kg i.p.): 1886 ± 437.3 mm
plasma prolactin level (plasma prolactin): 5.67 ± 0.51 ng/mL
